Data as given in patent publication US8163793B2, “Proline derivatives” (Hoffman-La Roche Inc., priority 2009, dated 2012).
pIC50: −log10 of the molar value. Where a name gives a salt, the structure may show the parent alone.

Assays:
Cathepsin S = Cathepsin S (UniProt P25774); assay: Cathepsin enzyme inhibition assay (fluorogenic peptide substrate Z-Val-Val-Arg-AMC), Cathepsin S; type: biochemical, human and mouse; conditions: enzyme 1 nM, substrate 20 μM, pH 6.5; read-out: CatS IC50
How it was run: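 Compounds were combined with 1 nM human or mouse enzyme, and substrate then started the reaction. The buffer was potassium phosphate (100 mM, pH 6.5) containing EDTA-Na 5 mM, Triton X-100 0.001% and […] 5 mM.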

Cat L = Cat L (UniProt P07711); assay: Cathepsin enzyme inhibition assay (fluorogenic peptide substrate Z-Val-Val-Arg-AMC), Cathepsin L; type: biochemical, human and mouse; conditions: for pIC50: enzyme 1 nM, substrate 20 μM, pH 6.5, read-out: CatL IC50
How it was run: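 Fluorogenic cleavage of Z-Val-Val-Arg-AMC (20 μM) by 1 nM Cat L was monitored at ex 360/em 465 nm for 20 min, the linear phase. The buffer was 100 mM potassium phosphate pH 6.5 with 5 mM EDTA and DTT. IC50 values were derived by standard methods, in μM.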

SMILES	pIC50 (Cathepsin S)	pIC50 (Cat L)	CatL, % @25 uM (Cat L; @25 uM compound) [% @25 uM]
N#CC1(NC(=O)[C@@H]2C[C@@H](S(=O)(=O)c3ccc(-n4ccccc4=O)cc3C(F)(F)F)CN2)CC1 [Example 31, (2S,4R)-4-[4-(2-Oxo-2H-pyridin-1-yl)-2-trifluoromethyl-benzenesulfonyl]-pyrrolidine-2-carboxylic acid (1-cyano-cyclopropyl)-amide hydrochloride]	8.70	≤ 4.60	–
CS(=O)(=O)[C@@H]1C[C@@H](C(=O)NC2(C#N)CC2)N(C(=O)C2(C(F)(F)F)CC2)C1 [Example 440, (2S,4R)-4-Methanesulfonyl-1-(1-trifluoromethyl-cyclopropanecarbonyl)-pyrrolidine-2-carboxylic acid (1-cyano-cyclopropyl)-amide]	5.13	≤ 4.60	–
CC(C)(C)OC(=O)N1C[C@H](S(=O)(=O)c2ccccc2Cl)C[C@H]1C(=O)NC1(C#N)CCC1 [Example 34, (2S,4R)-4-(2-Chloro-benzenesulfonyl)-2-(1-cyano-cyclobutylcarbamoyl)-pyrrolidine-1-carboxylic acid tert-butyl ester]	6.12	≤ 4.60	–
N#CC1(NC(=O)[C@@H]2C[C@@H](S(=O)(=O)c3ccccc3Cl)CN2C(=O)C2(CO)CC2)CC1 [Example 452, (2S,4R)-4-(2-Chloro-benzenesulfonyl)-1-(1-hydroxymethyl-cyclopropanecarbonyl)-pyrrolidine-2-carboxylic acid (1-cyano-cyclopropyl)-amide]	8.93	5.10	–
N#CCNC(=O)[C@@H]1C[C@@H](S(=O)(=O)c2ccccc2)CN1C(=O)C1CCCCC1 [Example 53, (2S,4R)-4-Benzenesulfonyl-1-cyclohexanecarbonyl-pyrrolidine-2-carboxylic acid cyanomethyl-amide]	8.28	≤ 4.60	–
N#CC1(NC(=O)[C@H]2C[C@@H](S(=O)(=O)c3ccc(N4CCOCC4)cc3Cl)CN2C(=O)C2(C(F)(F)F)CC2)CC1 [Example 162, (2R,4R)-4-(2-Chloro-4-morpholin-4-yl-benzenesulfonyl)-1-(1-trifluoromethyl-cyclopropanecarbonyl)-pyrrolidine-2-carboxylic acid (1-cyano-cyclopropyl)-amide]	7.63	≤ 4.60	–
Cc1cc(N2C[C@H](S(C)(=O)=O)C[C@H]2C(=O)NC2(C#N)CC2)n(CC(F)(F)F)n1 [Example 466, (2S,4R)-4-Methanesulfonyl-1-[5-methyl-2-(2,2,2-trifluoro-ethyl)-2H-pyrazol-3-yl]-pyrrolidine-2-carboxylic acid (1-cyano-cyclopropyl)-amide]	5.07	–	95
N#CC1(NC(=O)[C@@H]2C[C@@H](S(=O)(=O)c3ccc(-n4cccn4)cc3Cl)CN2)CC1 [Example 128, (2S,4R)-4-(2-Chloro-4-pyrazol-1-yl-benzenesulfonyl)-pyrrolidine-2-carboxylic acid (1-cyano-cyclopropyl)-amide]	8.85	4.76	–
N#CC1(NC(=O)[C@@H]2C[C@@H](S(=O)(=O)c3ccccc3C(F)(F)F)CN2C=O)CC1 [Example 100, (2S,4R)-1-Formyl-4-(2-trifluoromethyl-benzenesulfonyl)-pyrrolidine-2-carboxylic acid (1-cyano-cyclopropyl)-amide]	8.11	≤ 4.60	–

The next molecules have a higher pIC50 (Cathepsin S) than those just listed; values first:

pIC50 (Cathepsin S)	pIC50 (Cat L)	CatL, % @25 uM (Cat L; @25 uM compound) [% @25 uM]	SMILES
9.03	5.36	–	Cc1cc(N2C[C@H](S(=O)(=O)c3ccc(-n4cccn4)cc3Cl)C[C@H]2C(=O)NC2(C#N)CC2)n(C2CCOCC2)n1 [Example 490]
9.09	5.59	–	CC(C(=O)N1C[C@H](S(=O)(=O)c2ccccc2Cl)C[C@H]1C(=O)NC1(C#N)CC1)c1ccc(Cl)cc1 (stereo partly drawn) [Example 430, (2S,4R)-1-(2-(4-chlorophenyl)propanoyl)-4-(2-chlorophenylsulfonyl)-N-(1-cyanocyclopropyl)pyrrolidine-2-carboxamide]
9.10	5.01	–	N#CC1(NC(=O)[C@@H]2C[C@@H](S(=O)(=O)c3ccccc3Cl)CN2C(=O)C(F)(F)F)CC1 [Example 80, (2S,4R)-4-(2-Chloro-benzenesulfonyl)-1-(2,2,2-trifluoro-acetyl)-pyrrolidine-2-carboxylic acid (1-cyano-cyclopropyl)-amide]
9.15	≤ 4.60	–	CC(=O)N1C[C@H](S(=O)(=O)c2ccc(-n3cccn3)cc2C(F)(F)F)C[C@H]1C(=O)NC1(C#N)CC1 [Example 111, (2S,4R)-1-Acetyl-4-(4-pyrazol-1-yl-2-trifluoromethyl-benzenesulfonyl)-pyrrolidine-2-carboxylic acid (1-cyano-cyclopropyl)-amide]
9.27	5.19	–	Cc1cc(N2C[C@H](S(=O)(=O)c3ccc(F)cc3Cl)C[C@H]2C(=O)NC2(C#N)CC2)n(C2CCC2)n1 [Example 385, (2S,4R)-4-(2-Chloro-4-fluoro-benzenesulfonyl)-1-(2-cyclobutyl-5-methyl-2H-pyrazol-3-yl)-pyrrolidine-2-carboxylic acid (1-cyano-cyclopropyl)-amide]
9.30	4.95	–	CC1(C(=O)N2C[C@H](S(=O)(=O)c3ccccc3Cl)C[C@H]2C(=O)NC2(C#N)CC2)CC1 [Example 214, (2S,4R)-4-(2-Chloro-benzenesulfonyl)-1-(1-methyl-cyclopropanecarbonyl)-pyrrolidine-2-carboxylic acid (1-cyano-cyclopropyl)-amide]
9.40	≤ 4.60	–	N#CC1(NC(=O)[C@@H]2C[C@@H](S(=O)(=O)c3ccccc3C(F)(F)F)CN2C(=O)c2ccc(F)cc2)CC1 [Example 106, (2S,4R)-1-(4-Fluoro-benzoyl)-4-(2-trifluoromethyl-benzenesulfonyl)-pyrrolidine-2-carboxylic Acid (1-cyano-cyclopropyl)-amide]
9.59	4.59	–	Cn1cc(-c2ccc(S(=O)(=O)[C@@H]3C[C@@H](C(=O)NC4(C#N)CC4)N(C(=O)C4(C)CC4)C3)c(C(F)(F)F)c2)cn1 [Example 249, (2S,4R)-1-(1-Methyl-cyclopropanecarbonyl)-4-[4-(1-methyl-1H-pyrazol-4-yl)-2-trifluoromethyl-benzenesulfonyl]-pyrrolidine-2-carboxylic acid (1-cyano-cyclopropyl)-amide]
9.70	5.08	–	N#CC1(NC(=O)[C@@H]2C[C@@H](S(=O)(=O)c3ccccc3Cl)CN2C(=O)C2CCCCC2)CC1 [Example 77, (2S,4R)-4-(2-Chloro-benzenesulfonyl)-1-cyclohexanecarbonyl-pyrrolidine-2-carboxylic acid (1-cyano-cyclopropyl)-amide]
9.70	5.09	–	Cc1cc(N2C[C@H](S(=O)(=O)c3ccc(N4CCN(C)CC4)cc3C(F)(F)F)C[C@H]2C(=O)NC2(C#N)CC2)n(C2CCC2)n1 [Example 389, (2S,4R)-1-(2-Cyclobutyl-5-methyl-2H-pyrazol-3-yl)-4-[4-(4-methyl-piperazin-1-yl)-2-trifluoromethyl-benzenesulfonyl]-pyrrolidine-2-carboxylic acid (1-cyano-cyclopropyl)-amide]
